From US11285218B2, “Degradation of bromodomain-containing protein 9 (BRD9) by conjugation of BRD9 inhibitors with E3 ligase ligand and methods of use” (Dana-Farber Cancer Institute, Inc., priority 2016, dated 2022)

Tests used:
BRD4(1) = BRD4(1) (Homo sapiens, UniProt O60885); assay: BRD4(1) ligand-displacement AlphaScreen; format: binding; design: substituting protein and biotin-probe components for BRD4(1) protein at 20 nM final; His tag (inferred from Ni-coated acceptor beads)
[1] = target: BRD9:CRBN-DDB1 protein complex (Homo sapiens, UniProt Q96SW2+Q9H8M2); assay: BRD9:CRBN-DDB1 dimerization assay (luminescence); settings: for BRD9:CRB9-DDB1 AUC / BRD9:CRB9-DDB1 Cmax: luminescence detection of dimerization assay; for formation of the BRD9:CRBN-DDB1 protein complex: relative to unmodified thalidomide, in words
Chain of BRD9:CRBN-DDB1 protein complex (Q96SW2 whole entry, one chain of several): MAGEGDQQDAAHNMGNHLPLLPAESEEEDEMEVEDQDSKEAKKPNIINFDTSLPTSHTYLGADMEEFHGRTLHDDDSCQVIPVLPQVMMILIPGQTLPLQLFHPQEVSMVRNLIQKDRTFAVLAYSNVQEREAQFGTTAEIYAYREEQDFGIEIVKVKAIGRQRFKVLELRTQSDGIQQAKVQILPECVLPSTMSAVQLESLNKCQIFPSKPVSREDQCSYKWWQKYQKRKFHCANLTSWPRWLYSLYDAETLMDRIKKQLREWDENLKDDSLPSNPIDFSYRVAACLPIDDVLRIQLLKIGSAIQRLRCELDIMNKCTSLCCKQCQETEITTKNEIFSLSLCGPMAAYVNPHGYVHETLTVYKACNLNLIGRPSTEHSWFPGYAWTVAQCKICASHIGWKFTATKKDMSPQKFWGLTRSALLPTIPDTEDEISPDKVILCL
Chain of BRD9:CRBN-DDB1 protein complex (Q16531 whole entry partner, one chain of several): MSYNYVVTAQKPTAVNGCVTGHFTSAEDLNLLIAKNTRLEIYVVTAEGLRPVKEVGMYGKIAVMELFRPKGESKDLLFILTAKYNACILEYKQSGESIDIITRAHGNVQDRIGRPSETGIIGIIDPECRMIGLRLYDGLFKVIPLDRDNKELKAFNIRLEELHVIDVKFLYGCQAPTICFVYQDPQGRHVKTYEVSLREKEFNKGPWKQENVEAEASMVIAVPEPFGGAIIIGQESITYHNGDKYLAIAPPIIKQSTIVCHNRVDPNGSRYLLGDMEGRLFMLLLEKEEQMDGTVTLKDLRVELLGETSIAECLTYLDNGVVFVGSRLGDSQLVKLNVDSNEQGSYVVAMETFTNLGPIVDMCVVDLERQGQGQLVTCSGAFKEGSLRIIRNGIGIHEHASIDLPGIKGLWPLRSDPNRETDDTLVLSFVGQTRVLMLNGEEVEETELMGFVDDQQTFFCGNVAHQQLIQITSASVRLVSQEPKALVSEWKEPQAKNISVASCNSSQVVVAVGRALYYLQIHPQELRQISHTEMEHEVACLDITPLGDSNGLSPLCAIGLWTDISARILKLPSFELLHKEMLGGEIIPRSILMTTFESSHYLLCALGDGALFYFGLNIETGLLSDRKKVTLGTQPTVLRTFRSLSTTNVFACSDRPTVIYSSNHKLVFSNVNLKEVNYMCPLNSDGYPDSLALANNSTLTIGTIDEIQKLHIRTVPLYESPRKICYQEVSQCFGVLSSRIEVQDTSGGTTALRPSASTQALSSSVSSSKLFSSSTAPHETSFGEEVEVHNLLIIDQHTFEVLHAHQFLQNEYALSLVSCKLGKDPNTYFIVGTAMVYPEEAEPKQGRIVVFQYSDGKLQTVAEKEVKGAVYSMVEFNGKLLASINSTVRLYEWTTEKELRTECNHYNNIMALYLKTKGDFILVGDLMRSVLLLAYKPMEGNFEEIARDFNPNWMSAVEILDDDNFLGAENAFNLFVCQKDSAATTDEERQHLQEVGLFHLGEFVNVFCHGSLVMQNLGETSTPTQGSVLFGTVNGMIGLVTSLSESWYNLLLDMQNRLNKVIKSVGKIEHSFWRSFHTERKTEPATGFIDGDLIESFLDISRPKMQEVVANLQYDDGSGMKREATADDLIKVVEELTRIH
Procedure: To measure this activity, a homogenous luminescence assay was developed to report on compound-induced proximity of BRD9 and CRBN.
To detect CRBN-DDBI/BRD4 dimerization, we adapted bead-based AlphaScreen technology. […] Compounds were then pinned at 100 nL per well from DMSO stock. After 1 incubation at room temperature. Nickel Chelate AlphaLISA Acceptor and Glutathione AlphaLISA Donor beads (PerkinElmer) were diluted in assay buffer to 20 μg/mL and added at 20 μl per well.

CRBN-DDB1 = target: T1, CRBN-DDB1 (Homo sapiens, UniProt Q96SW2); assay: CRBN-DDB1 ligand-displacement AlphaScreen; format: binding; settings: for IC50: purified CRBN-DDB1 ligand displacement
T1 construct: made in house; host or cells: Sf9 cells (Invitrogen)
T1 sequence (Q96SW2 whole entry): as the sequence (Q96SW2 whole entry, one chain of several) above
T1 sequence (Q16531 whole entry partner): as the sequence (Q16531 whole entry partner, one chain of several) above
Procedure: Following a 30 min incubation, 20 uL detection solution containing Streptavidin Donor Beads and Nickel Chelate AlphaLISA® Acceptor Beads diluted to 20 ng/uL in assay buffer was added to each well.

BRD9 [2] = target: T2, BRD9 (Homo sapiens, UniProt Q9H8M2); assay: BRD9-ligand displacement AlphaScreen; format: binding
T2 construct: A construct of human BRD9 covering residues 134-0245 in the pET28PP vector; made in house; host or cells: E. coli BL21 (DE3)
T2 sequence (Q9H8M2 134-245 limits assumed): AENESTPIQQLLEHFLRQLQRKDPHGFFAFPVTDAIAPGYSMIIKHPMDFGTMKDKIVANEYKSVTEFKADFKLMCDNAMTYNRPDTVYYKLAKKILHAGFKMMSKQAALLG
Procedure: BRD9 assays were performed with minimal modifications from the manufacturer's protocol (PerkinElmer, USA). All reagents were diluted in 50 mM HEPES, 150 mM NaCl, 0.1% w/v BSA, 0.01% w/v Tween20, pH 7.5. […] Plates were spun down at 150×g, and 100 nL of DMSO compound stock was added from pre-diluted plates by pin transfer using a Janus Workstation (PerkinElmer, USA). Under low light, a 2× suspension of Ni-coated Acceptor Beads and Streptavidin Donor Beads, was then added at 10 ul/well to a final concentration of 5 μg/ml by EL406 automated liquid handler (Biotek, USA).

BRD9 [3] = target: T3, BRD9 (Homo sapiens, UniProt Q9H8M2); assay: BRD9 immunoblot in MOLM-13; settings: MOLM-13, 4 hour treatment, indicated concentrations; in words
T3 sequence (Q9H8M2 1-597): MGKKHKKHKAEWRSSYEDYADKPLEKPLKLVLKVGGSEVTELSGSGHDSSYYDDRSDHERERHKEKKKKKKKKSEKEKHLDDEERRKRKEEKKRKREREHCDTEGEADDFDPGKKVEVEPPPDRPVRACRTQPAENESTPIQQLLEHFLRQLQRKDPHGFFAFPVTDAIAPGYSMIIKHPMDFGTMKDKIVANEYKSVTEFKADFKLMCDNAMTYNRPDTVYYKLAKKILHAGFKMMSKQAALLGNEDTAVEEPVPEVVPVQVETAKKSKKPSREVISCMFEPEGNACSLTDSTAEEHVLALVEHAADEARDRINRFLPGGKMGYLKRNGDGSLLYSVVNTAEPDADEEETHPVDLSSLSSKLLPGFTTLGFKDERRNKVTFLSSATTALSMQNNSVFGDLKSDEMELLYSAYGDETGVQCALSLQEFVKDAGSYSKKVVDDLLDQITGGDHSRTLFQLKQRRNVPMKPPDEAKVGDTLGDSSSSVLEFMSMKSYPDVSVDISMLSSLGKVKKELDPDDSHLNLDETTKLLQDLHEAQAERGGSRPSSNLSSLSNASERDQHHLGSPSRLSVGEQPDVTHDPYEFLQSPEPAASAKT
Procedure: In additional experiments, cells were washed with PBS, before being lysed in RIPA buffer supplemented with 1×HALT™ protease inhibitor cocktail (Thermo Scientific) for 10 min on ice, followed by low-amplitude sonication for 10 seconds at 4° C. […] In soluble material was removed by centrifugation at 20,000×g for 20 min before protein content was quantified by BCA assay (Pierce). […] Blots were imaged using fluorescence-labeled secondary antibodies (LI-COR) on the OdysseyCLxImager (LI-COR).

BRD9 [4] = target: T3, BRD9; assay: BRD9 degradation / cellular activity (Western blot, cell line not stated); settings: cell line not given

| SMILES | IC50 (BRD4(1)) [nM] | BRD9:CRB9-DDB1 AUC [1] | BRD9:CRB9-DDB1 Cmax [1] [nM] | IC50 (CRBN-DDB1) [nM] | IC50 (BRD9 [2]) [nM] | BRD9 protein level (immunoblot) (BRD9 [3]) | BRD9:CRBN-DDB1 dimerization, comparison in words [1] | BRD9 degradation / cellular potency, in words (BRD9 [4]) | formation of the BRD9:CRBN-DDB1 protein complex [1] | CRBN-DDB1 affinity, in words (CRBN-DDB1; comparison of phthalimide linkages) |
| --- | --- | --- | --- | --- | --- | --- | --- | --- | --- | --- |
| COc1cc(-c2cn(C)c(=O)c3cc(C(=N)NC4CCS(=O)(=O)CC4)sc23)ccc1OCC(=O)NCCCCCCOc1cccc2c1C(=O)N(C1CCC(=O)NC1=O)C2=O (stereo not shown) [Compound I-8] | 7000 | 144813 | 111 | 20.1 | 30 | Marked protein loss | further improved dimerization relative to compound I-2 | – | significantly induce formation of the complex | slightly improved binding over acetamide ethers I-1 and I-2 |
| COc1cc(-c2cn(C)c(=O)c3cc(C(=N)NC4CCS(=O)(=O)CC4)sc23)ccc1OCC(=O)N1CCC(C2CCN(C(=O)COc3cccc4c3C(=O)N(C3CCC(=O)NC3=O)C4=O)CC2)CC1 (stereo not shown) [Compound I-7] | 1510 | 107794 | 54.0 | 16 | 12.5 | – | significant improvement | significant improvement | significantly induce formation of the complex | – |
| COc1cc(-c2cn(C)c(=O)c3cc(C(=N)NC4CCS(=O)(=O)CC4)sc23)ccc1OCC(=O)NCCCCCCCCNc1cccc2c1C(=O)N(C1CCC(=O)NC1=O)C2=O (stereo not shown) [Compound I-5] | 1560 | 67227 | 37.4 | 10.8 | 15.5 | effectively downregulate BRD9 over a broad range of concentrations | – | – | significantly induce formation of the complex | – |
| COc1cc(-c2cn(C)c(=O)c3cc(C(=N)NC4CCS(=O)(=O)CC4)sc23)ccc1OCC(=O)NCCCCCCCCNC(=O)COc1cccc2c1C(=O)N(C1CCC(=O)NC1=O)C2=O (stereo not shown) [Compound I-2] | 3390 | 71477 | 95.1 | 43.7 | 18.9 | Marked protein loss | improved dimerization relative to the short four-carbon linked compound I-1 | – | significantly induce formation of the complex | – |
| COc1cc(-c2cn(C)c(=O)c3cc(C(=N)NC4CCS(=O)(=O)CC4)sc23)ccc1OCC(=O)NCCCCNC(=O)COc1cccc2c1C(=O)N(C1CCC(=O)NC1=O)C2=O (stereo not shown) [Compound I-1] | 3780 | 44270 | 42.5 | 48.9 | 13.5 | – | – | – | significantly induce formation of the complex | – |
| COc1cc(-c2cn(C)c(=O)c3cc(C(=N)NC4CCS(=O)(=O)CC4)sc23)ccc1OCC(=O)NCCCOCCOCCOCCCNC(=O)COc1cccc2c1C(=O)N(C1CCC(=O)NC1=O)C2=O (stereo not shown) [Compound I-3] | 3140 | 50182 | 44.9 | 49.5 | 36.5 | – | reduced this activity | – | significantly induce formation of the complex | – |
| COc1cc(-c2cn(C)c(=O)c3cnccc23)cc(OC)c1CN(C)CC(=O)NCCOCCOCCOCC(=O)N[C@@H](C(=O)N1C[C@@H](O)C[C@@H]1C(=O)NCc1ccc(-c2scnc2C)cc1)C(C)(C)C [Compound I-23] | > 50000 | – | – | – | 43.2 | – | – | – | – | – |

The next lines start with results.

| IC50 (BRD4(1)) [nM] | BRD9:CRB9-DDB1 AUC [1] | BRD9:CRB9-DDB1 Cmax [1] [nM] | IC50 (CRBN-DDB1) [nM] | IC50 (BRD9 [2]) [nM] | BRD9 protein level (immunoblot) (BRD9 [3]) | BRD9:CRBN-DDB1 dimerization, comparison in words [1] | BRD9 degradation / cellular potency, in words (BRD9 [4]) | SMILES | formation of the BRD9:CRBN-DDB1 protein complex [1] | CRBN-DDB1 affinity, in words (CRBN-DDB1; comparison of phthalimide linkages) |
| --- | --- | --- | --- | --- | --- | --- | --- | --- | --- | --- |
| > 50000 | 58563 | 27.3 | 14.8 | 48 | – | – | – | COc1cc(-c2cn(C)c(=O)c3cnccc23)cc(OC)c1CN(C)CC(=O)NCCCCCCCCNC(=O)COc1cccc2c1C(=O)N(C1CCC(=O)NC1=O)C2=O (stereo not shown) [Compound I-24] | significantly induce formation of the complex | – |
| > 50000 | 139380 | 8.22 | 8.35 | 83.1 | – | – | – | COc1cc(-c2cn(C)c(=O)c3cnccc23)cc(OC)c1CN(C)CC(=O)NCCCCCCCCNc1cccc2c1C(=O)N(C1CCC(=O)NC1=O)C2=O (stereo not shown) [Compound I-15] | significantly induce formation of the complex | – |
| 1110 | 46614 | 33.7 | 17.6 | 11.5 | – | superior | superior | COc1cc(-c2cn(C)c(=O)c3cc(C(=N)NC4CCS(=O)(=O)CC4)sc23)ccc1OCC(=O)NCCCCCCCCNc1ccc2c(c1)C(=O)N(C1CCC(=O)NC1=O)C2=O (stereo not shown) [Compound I-9] | significantly induce formation of the complex | – |
| > 50000 | 60256 | 8.39 | 8.5 | 56.6 | – | – | – | COc1cc(-c2cn(C)c(=O)c3cnccc23)cc(OC)c1CN(C)CC(=O)NCCCCCCNc1ccc2c(c1)C(=O)N(C1CCC(=O)NC1=O)C2=O (stereo not shown) [Compound I-12] | significantly induce formation of the complex | – |
